Experiment [1] concerns the target T1, Polyunsaturated fatty acid 5-lipoxygenase (Rattus norvegicus, UniProt P12527).
T1 sequence (P12527 whole entry): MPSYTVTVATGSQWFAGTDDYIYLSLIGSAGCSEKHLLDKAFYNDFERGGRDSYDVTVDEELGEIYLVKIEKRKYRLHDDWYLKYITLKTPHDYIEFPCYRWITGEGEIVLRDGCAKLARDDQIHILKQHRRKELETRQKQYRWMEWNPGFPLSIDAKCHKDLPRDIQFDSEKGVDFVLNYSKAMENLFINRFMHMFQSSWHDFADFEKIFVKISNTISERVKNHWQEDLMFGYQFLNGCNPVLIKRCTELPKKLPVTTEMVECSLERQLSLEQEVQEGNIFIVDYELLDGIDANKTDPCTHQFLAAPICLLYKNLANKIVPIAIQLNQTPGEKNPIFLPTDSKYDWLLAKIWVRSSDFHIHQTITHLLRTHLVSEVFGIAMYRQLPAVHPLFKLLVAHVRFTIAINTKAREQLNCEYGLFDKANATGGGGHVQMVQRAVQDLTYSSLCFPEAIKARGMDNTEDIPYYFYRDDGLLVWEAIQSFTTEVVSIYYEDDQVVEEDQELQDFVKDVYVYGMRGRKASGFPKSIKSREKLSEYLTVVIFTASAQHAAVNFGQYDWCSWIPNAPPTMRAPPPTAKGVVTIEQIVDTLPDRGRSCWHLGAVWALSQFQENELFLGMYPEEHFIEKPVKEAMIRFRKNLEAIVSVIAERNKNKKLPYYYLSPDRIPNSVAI
Nature of the experiment: Inhibition of rat basophilic leukemia cell 5-lipoxygenase.

Another experiment deals with Phospholipase A2 (Rattus norvegicus, UniProt P04055). Nature of the experiment: Inhibitory activity against polymorphonuclear cell phospholipase-A2 in rat.
Experiment [2] concerns Rattus norvegicus. Nature of the experiment: Compound was tested for its oral antiinflammatory activity in the rat carrageenan paw edema assay (CAR). Format: functional. For orientation: The carrageenan paw model is a standard test of acute inflammation.
Experiment [3] is filed under the species Mus musculus. Nature of the experiment: Compound was tested for its oral antiinflammatory activity in the mouse contact sensitivity assay (CON SEN). Format: functional.
Experiment [4] has as its system Mus musculus. Nature of the experiment: Percent inhibition for its antiinflammatory activity in the tetradecanoyl phorbol acetate mouse ear edema assay (TPA EAR); Inhibition at 100 […]. Format: functional.
Experiment [5] has as its system Mus musculus. The experiment can be described thus: Compound was tested for its oral antiinflammatory activity in the mouse contact sensitivity assay (CON SEN) at the specified dose, activity expressed as % inhibition at 50 mg/Kg. The experiment is classed as functional.
In experiment [6] the test system is Rattus norvegicus. The experiment can be described thus: Compound was tested for its antiinflammatory activity in the rat established adjuvant arthritis paw edema assay (EST ADJ ARTH), after oral administration. The experiment is classed as functional.
In experiment [7] the test system is Rattus norvegicus. Nature of the experiment: Percent inhibition for its antiinflammatory activity in the rat carrageenan paw edema assay (CAR), % inhibition at 50 mg/Kg. Format: functional.

Some results are limits rather than exact numbers.

The results in this text go back to ChEMBL document CHEMBL1153684, “Antiinflammatory -benzeneethanamines. III” (Bioorg Med Chem Lett, 1993).

By IC50 is commonly meant the concentration that inhibits the measured activity by half. A high value points to a need for much substance. Broadly, the Inhibition is the percentage by which the read-out fell short of the control. As a reminder, the inhibition in vivo is the change of the read-out against control, counted positive when it falls. A high value points to a strong effect. As usually defined, the ED50 is the dose at which the effect has come halfway, by size or by number of responders.

Chain of Phospholipase A2 (P04055 whole entry): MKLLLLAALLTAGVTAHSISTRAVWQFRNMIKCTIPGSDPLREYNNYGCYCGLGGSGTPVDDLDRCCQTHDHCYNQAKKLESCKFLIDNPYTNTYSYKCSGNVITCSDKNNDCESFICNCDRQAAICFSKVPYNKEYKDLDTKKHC

For the compound `CC(C)(C)c1ccc(SCCCCC(CN)c2ccc(F)cc2)cc1.Cl` (stereo not given), the IC50 was 230 µM in experiment [1] and 4.8 µM at Phospholipase A2. In the experiment on Rattus norvegicus [2], this compound had an ED30 of 153.8 µM/kg.
For `Cl.NCC(CCCCSc1ccc2ccccc2c1)c1ccc(F)cc1` (stereo not given), the IC50 in experiment [1] was determined as 130 µM; at Phospholipase A2, 2.4 µM. In the experiment on Rattus norvegicus [2], this compound returned an ED30 of 171.3 µM/kg.
For `Cc1ccc(SCCCC(CN)c2ccc(F)cc2)cc1.Cl` (stereo in doubt), in that order: 75 µM, 54 µM and above 172.8 µM/kg.
`CCN(CC)CCCC(C)Nc1c2ccc(Cl)cc2nc2ccc(OC)cc12` (stereo not given) [QUINACRINE] came in with an IC50 at Phospholipase A2 of 100 µM. The same compound gave an ED30 in the experiment with Rattus norvegicus [2] of 5.8 µM/kg.
For `Cc1ccc(SCCCCC(CN)c2ccc(F)cc2)cc1.Cl` (stereo not given), the results for the IC50 (in experiment [1]; against Phospholipase A2) were 9.5 µM and 5.5 µM, respectively. The ED35 in the experiment filed under Mus musculus [3] was determined as 8.9 mg/kg. In the experiment with Mus musculus [4], this compound displayed an Inhibition of 37%. For the same compound, the inhibition in vivo at 50 mg/kg in the experiment with Mus musculus [5] worked out at 51.2%; in the experiment with Rattus norvegicus [7], 59%. Besides, the ED30 was 1.4 µM/kg with Rattus norvegicus [2] and 0.51 mg/kg with Rattus norvegicus [2] (Rattus norvegicus, po, read-out: ED30). Besides, the ED50 in the experiment on Rattus norvegicus [6] was 50 mg/kg.
For the compound `Cc1ccc(SCCCC(CN)c2ccc(F)cc2)cc1.Cl` (stereo in doubt; 2), the half-maximal inhibitory concentration (IC50) in experiment [1] was 38 µM; at Phospholipase A2, 28.3 µM. Besides, the ED30 in the experiment with Rattus norvegicus [2] was 50 µM/kg.
Regarding `NC1=NN(c2cccc(C(F)(F)F)c2)CC1` [BW-755C], on Phospholipase A2, the IC50 was above 25 µM.
With `C[C@@H]1C[C@H]2[C@@H]3CCC4=CC(=O)C=C[C@]4(C)[C@@]3(F)[C@@H](O)C[C@]2(C)[C@@]1(O)C(=O)CO` [DEXAMETHASONE], the IC50 is above 25 µM in experiment [1] and above 750 µM on Phospholipase A2. In the experiment on Rattus norvegicus [2], the ED30 was below 2.5 µM/kg.
In experiment [1], `COc1ccc2c(c1)c(CC(=O)O)c(C)n2C(=O)c1ccc(Cl)cc1` [INDOMETHACIN] returned a half-maximal inhibitory concentration (IC50) above 250 µM. For the same compound, the ED30 in the experiment with Rattus norvegicus [2] is 2.8 µM/kg.
As for `Cc1ccc(SCCCCCC(CN)c2ccc(F)cc2)cc1.Cl` (stereo not given), the IC50 in experiment [1] is 35 µM; against Phospholipase A2, 6.6 µM. This compound also gave an ED30 in the experiment with Rattus norvegicus [2] of 117.7 µM/kg.
With `Cl.NCC(CCCSc1ccc2ccccc2c1)c1ccc(F)cc1` (stereo not given), the values for the IC50 (in experiment [1]; at Phospholipase A2) were 23 µM and 14 µM, respectively. Also, in the experiment on Rattus norvegicus [2], the ED30 is above 153.6 µM/kg.
